Test results taken from patent publication US20260200928A1, “THERAPEUTIC COMPOUNDS” (Sanofi, priority 2022, published 2026).

Molecular target: T1, human IL-17A (Homo sapiens, UniProt Q16552)
T1 construct: purchased R&D Systems 7955-IL/CF
T1 sequence (Q16552 24-155): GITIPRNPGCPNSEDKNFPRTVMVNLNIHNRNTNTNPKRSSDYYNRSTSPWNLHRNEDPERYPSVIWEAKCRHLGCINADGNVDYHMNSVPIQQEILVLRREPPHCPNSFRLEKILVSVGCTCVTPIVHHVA
Test: IL-17A AlphaLISA competition assay (block of IL-17A binding to its receptor IL-17RA)
Conditions: mean IC50 (n≥2), block of IL-17A binding to IL-17RA
Method in brief: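 Bead-based AlphaLISA competition in PBS with 0.05% Tween-20 and 0.1% BSA: compound first meets human IL-17A (7.5 nM stock) for 30 min, then IL-17RA/Fc (5 nM stock) for 90 min, all at room temperature, before acceptor/donor bead capture. IC50 fitted 4-parameter, DMSO and 4 μM reference inhibitor as controls; at least duplicate.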

IC50 [nM]	SMILES
646	COCC(NC(=O)CCC(F)(F)F)c1ccnc(NC(=O)[C@@H](NC(=O)c2nccn2C(C)C)C2CCC(F)(F)CC2)c1 (single isomer, unassigned) [Example 141]
183	CC(C)n1nccc1C(=O)N[C@H](C(=O)Nc1cc(C(NC(=O)CC(F)(F)F)C2CC2)ccn1)C1CCC(F)(F)CC1 (stereo partly drawn) [Example 160, N-((1S)-2-((4-(cyclopropyl(3,3,3-trifluoropropanamido)methyl)pyridin-2-yl)amino)-1-(4,4-difluorocyclohexyl)-2-oxoethyl)-1-isopropyl-1H-pyrazole-5-carboxamide]
1460	COCC(c1ccnc(NC(=O)[C@@H](NC(=O)c2ncncc2C)[C@H]2CC[C@H](C)CC2)c1)N1C[C@H](C(F)(F)F)NC1=O (stereo partly drawn) [Example 135, N-((1S)-2-((4-(2-methoxy-1-((S)-2-oxo-4-(trifluoromethyl)imidazolidin-1-yl)ethyl)pyridin-2-yl)amino)-1-((1r,4S)-4-methylcyclohexyl)-2-oxoethyl)-5-methylpyrimidine-4-carboxamide]
8000	Cc1nonc1COC(=O)N[C@H](C(=O)Nc1cc(CN2C[C@@H](C(F)(F)F)NC2=O)ccn1)C1CCC(F)(F)CC1 [Example 70, (4-Methyl-1,2,5-oxadiazol-3-yl)methyl ((S)-1-(4,4-difluorocyclohexyl)-2-oxo-2-((4-(((S)-2-oxo-4-(trifluoromethyl)imidazolidin-1-yl)methyl)pyridin-2-yl)amino)ethyl)carbamate]
1050	CC1(C)CN(Cc2ccnc(NC(=O)[C@@H](NC(=O)OC(C)(C)C)[C@H]3CC[C@H](C)CC3)c2)C(=O)N1 [Example 24, Tert-butyl ((S)-2-((4-((4,4-dimethyl-2-oxoimidazolidin-1-yl)methyl)pyridin-2-yl)amino)-1-((1r,4S)-4-methylcyclohexyl)-2-oxoethyl)carbamate]
54	COCC(c1ccnc(NC(=O)C(NC(=O)C(F)(F)c2ccnn2C)C2CCC(C)CC2)c1)N1CC(C(F)(F)F)NC1=O (single isomer, unassigned) [Example 248]
33	COC[C@H](c1ccnc(NC(=O)[C@@H](NC(=O)c2nonc2C)C2CCC(F)(F)CC2)c1)N1C[C@@H](C(F)(F)F)NC1=O [Example 199, N-((S)-1-(4,4-difluorocyclohexyl)-2-((4-((S)-2-methoxy-1-((S)-2-oxo-4-(trifluoromethyl)imidazolidin-1-yl)ethyl)pyridin-2-yl)amino)-2-oxoethyl)-4-methyl-1,2,5-oxadiazole-3-carboxamide]
776	CCc1nocc1C(=O)NC(C(=O)Nc1cc(C(NC(=O)CCC(F)(F)F)C2CC2)ccn1)C1CCC(F)(F)CC1 (stereo not shown) [Example 49, N-(2-((4-(cyclopropyl(4,4,4-trifluorobutanamido)methyl)pyridin-2-yl)amino)-1-(4,4-difluorocyclohexyl)-2-oxoethyl)-3-ethylisoxazole-4-carboxamide]
35	CC(C)n1nccc1C(=O)N[C@@H](C(=O)Nc1cc(CN2C[C@H](C(F)(F)F)NC2=O)ccn1)[C@H]1CC[C@H](C)CC1 [Example 4, 1-isopropyl-N—((S)-1-((1r,4S)-4-methylcyclohexyl)-2-oxo-2-((4-(((S)-2-oxo-4-(trifluoromethyl)imidazolidin-1-yl)methyl)pyridin-2-yl)amino)ethyl)-1H-pyrazole-5-carboxamide]
33	CC[C@H](c1ccnc(NC(=O)[C@@H](NC(=O)c2nonc2C)C2CCC(F)(F)CC2)c1)N1C[C@@H](C(F)(F)F)NC1=O [Example 211, N-((S)-1-(4,4-difluorocyclohexyl)-2-oxo-2-((4-((R)-1-((S)-2-oxo-4-(trifluoromethyl)imidazolidin-1-yl)propyl)pyridin-2-yl)amino)ethyl)-4-methyl-1,2,5-oxadiazole-3-carboxamide]
4760	Cn1nccc1C(=O)NC(C(=O)Nc1cc(Cc2ccn(C)c(=O)c2)ccn1)C1CCC(F)(F)CC1 (stereo not shown) [Example 54, N-(1-(4,4-difluorocyclohexyl)-2-((4-((1-methyl-2-oxo-1,2-dihydro-pyridin-4-yl)methyl)pyridin-2-yl)amino)-2-oxoethyl)-1-methyl-1H-pyrazole-5-carboxamide]
341	COCC(c1ccnc(NC(=O)[C@@H](NC(=O)c2nnnn2C)[C@H]2CC[C@H](C)CC2)c1)N1C[C@@H](C(F)(F)F)NC1=O (single isomer, unassigned) [Example 93]
73	COCC(NC(=O)CCC(F)(F)F)c1ccnc(NC(=O)C(NC(=O)c2ccnn2C)C2CCC(C)CC2)c1 [Example 245, N-((1S)-2-((4-(2-methoxy-1-(4,4,4-trifluorobutanamido)ethyl)pyridin-2-yl)amino)-1-((1r,4S)-4-methylcyclohexyl)-2-oxoethyl)-1-methyl-1H-pyrazole-5-carboxamide]
44	COC[C@H](c1ccnc(NC(=O)[C@@H](NC(=O)c2ccnn2C)C2CCC(C(F)(F)F)CC2)c1)N1C[C@@H](C(F)(F)F)NC1=O (stereo partly drawn) [Example 302, N-((1S)-2-((4-((S)-2-methoxy-1-((S)-2-oxo-4-(trifluoromethyl)imidazolidin-1-yl)ethyl)pyridin-2-yl)amino)-2-oxo-1-(4-(trifluoromethyl)-cyclohexyl)ethyl)-1-methyl-1H-pyrazole-5-carboxamide]
197	COCC(NC(=O)CCC(F)(F)F)c1ccnc(NC(=O)[C@@H](NC(=O)c2ccnn2C(C)C)C2CCC(F)(F)CC2)c1 (single isomer, unassigned) [Example 137]
25	C[C@H]1CC[C@H]([C@H](NC(=O)c2nonc2C2CC2)C(=O)Nc2cc(CN3C[C@@H](C(F)(F)F)NC3=O)ccn2)CC1 [Example 2, 4-Cyclopropyl-N—((S)-1-((1r,4S)-4-methylcyclohexyl)-2-oxo-2-((4-(((S)-2-oxo-4-(trifluoromethyl)imidazolidin-1-yl)methyl)pyridin-2-yl)amino)ethyl)-1,2,5-oxadiazole-3-carboxamide]
153	CCn1nccc1C(=O)NC(C(=O)Nc1cc(CN2CC(C(F)(F)F)NC2=O)ccn1)C1CCC(F)CC1 [Example 293, 1-ethyl-N-((S)-1-((1r,4S)-4-fluorocyclohexyl)-2-oxo-2-((4-(((S)-2-oxo-4-(trifluoromethyl)imidazolidin-1-yl)methyl)pyridin-2-yl)amino)ethyl)-1H-pyrazole-5-carboxamide]
105	COC[C@H](c1ccnc(NC(=O)[C@@H](NC(=O)c2nocc2OCC(F)F)C2CCC(F)(F)CC2)c1)N1C[C@@H](C(F)(F)F)NC1=O [Example 192, N-((S)-1-(4,4-difluorocyclohexyl)-2-((4-((S)-2-methoxy-1-((S)-2-oxo-4-(trifluoromethyl)imidazolidin-1-yl)ethyl)pyridin-2-yl)amino)-2-oxoethyl)-4-(2,2-difluoroethoxy)isoxazole-3-carboxamide]
9	C[C@H]1CC[C@H]([C@H](NC(=O)c2nonc2C2CC2)C(=O)Nc2cc(C(CO)N3C[C@@H](C(F)(F)F)NC3=O)ccn2)CC1 (single isomer, unassigned) [Example 233, 4-Cyclopropyl-N-((1S)-2-((4-((R or S)-2-hydroxy-1-((S)-2-oxo-4-(trifluoro-methyl)imidazolidin-1-yl)ethyl)pyridin-2-yl)amino)-1-((1r,4S)-4-methylcyclohexyl)-2-oxoethyl)-1,2,5-oxadiazole-3-carboxamide]
